# Tests used:
# IGROV1 CR cells [1] = experiment: Drug synergy screening: SRB proliferation assay with 2 μM cisplatin; format: cell-based
# Experimental: (A) Collection of Momordin Ic (Mc) natural compound analogues. […] Cell proliferation was determined by the sulforhodamine B (SRB) assay. […] IGROV1 CR cells were incubated with Mc at indicated concentrations for 48 h and then harvested for Western blot for indicated proteins. […] IGROV1 CR cells were incubated with UA and then treated as in C. […] Intensity of SUMOylated JAK2 was measured by Quantity One software. […] Recombinant His‐JAK2 was SUMOylated by in vitro SUMOylation assay, and then SUMOylated JAK2 proteins were incubated with or without recombinant GST‐SENP1 together with Mc for 3 h. […] In vitro assay was performed as in (F). […]
# IGROV1 CR cells [2] = experiment: Viability of IGROV1 CR cells treated with compound alone (SRB); format: cell-based; conditions: 48 hrs
# Experimental: Cel l proliferation was determined by SR B assay. (B) Viability of IG ROV 1 CR cells treated by indicated compounds fo r 48 hrs. SRB assay wa s used to determine cell viabil ity. […]
# 1. Antibodies and re a ge nt s […]
# […] Momordin Ic ( A14773; Adooq Biosc ience) was dissolved in DMSO. Ursolic acid (A10961; Adooq Bioscience) wa s dissolved in DMSO. Collection of Mc natural compound an alogs were pu rch ase d fro m Sigma. Detailed proced ure to sy nt h e s ize UA derivatives was in c lu d ed in suppleme ntal material and methods.
# 2. Cell culture and resistance cell line establishment […]
# were cultured at 37 °C in DM EM with 10% Fe ta l Bovine Serum (F BS). All th e cells were cultured at in a humidified incubator with 5% CO2 atmo s phe re.
# 3. In vitro SUMOylation and de‐SU MOylation assays
# The SUMO yl ation re ac tions were performed according to th e manufacture’s instruction (BML‐UW8955‐ 0001; ENZO) and were described previously (1) . Briefly, 200 nM of purified HIS‐JAK 2 wa s mixed wit h reco mbinant SUMOs in reac ti on bu ffer (20 μl) containing Mg‐ AT P, SUMO E1, and SUMO E2, followed by incubation at 37°C fo r 60 min. […]
# Cell viability was detected using Sulforhodamine B (SRB) assay as described previously (3).
# Absorbance at 51 0 nm was detected using a SpectraMax Re a d e r (Molecular Devices) and an alyzed with SoftMax Analys is Software (Molecular Devices). […]
Structure (SMILES),IC50 of UA derivatives to inhibit resistant cells together with cisplatin (in words) (IGROV1 CR cells [1]),toxicity to cells of compound alone (IGROV1 CR cells [2])
C[C@H]1[C@H](C)CC[C@]2(C(=O)OCCNC(=O)OC(C)(C)C)CC[C@]3(C)C(=CC[C@@H]4[C@@]5(C)CC[C@H](O)C(C)(C)[C@@H]5CC[C@]43C)[C@H]12 [UAMMC3],lower IC50,higher toxicity
C[C@H]1[C@H](C)CC[C@]2(C(=O)OCC(=O)NCCO)CC[C@]3(C)C(=CC[C@@H]4[C@@]5(C)CC[C@H](O)C(C)(C)[C@@H]5CC[C@]43C)[C@H]12 [UAMMC5],lower IC50,higher toxicity

# Source: publication PMC8710297, “Identification of potent SENP1 inhibitors that inactivate SENP1/JAK2/STAT signaling pathway and overcome platinum drug resistance in ovarian cancer” (Clinical and Translational Medicine, 2021)
